Format in all cases: cell-based
The subject of experiment [1] is SH-SY5Y (human neuroblastoma) cells. The experiment is described as follows: Cell viability, Cell Titer Glo 2.0 assay. Particulars: read-out: Viability SHSY5Y.3 GI50. In outline: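 Following a 72 h incubation (37 °C, 5% CO2, 0.1% DMSO final), compound toxicity toward SH-SY5Y cells was quantified by CellTiter-Glo 2.0.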
Experiment [2] relates to MYB mRNA. The experiment in a line: Splicing RT-qPCR assay (THP), Table 2A. Particulars: Table 2A (THP); for AC50: AJ mRNA increase, read-out: MYB AJ (increase in alternative junction mRNA, AC50); for IC50: CJ mRNA decrease, read-out: MYB CJ (decrease in canonical junction mRNA, IC50). (Real-time PCR tracks product formation cycle by cycle.)
Experiment [3] concerns MYB mRNA. The experiment in a line: Splicing RT-qPCR assay, canonical (CJ) and alternative (AJ) junction mRNA, K562 cells. Particulars: Homo sapiens, K562.3 cells, 24 hours; for AC50: read-out: MYB AJ (AC50, increase in AJ mRNA); for IC50: read-out: MYB CJ (IC50, decrease in CJ mRNA). Summed up:
(§1)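 Plate K562 cells, add compound (top 10 uM final, DMSO ≤0.25%) and incubate 24 h. Lyse, run one-step RT-qPCR for CJ and AJ, normalize to GAPDH or GUSB, then to DMSO, and express as % response.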

In experiment [4] the test system is HTT mRNA. The experiment is described as above. Particulars: Homo sapiens, K562.3 cells, 24 hours; for AC50: read-out: HTT AJ (AC50, increase in AJ mRNA); for IC50: read-out: HTT CJ (IC50, decrease in CJ mRNA). In outline:
as §1

The subject of experiment [5] is HTT mRNA. The experiment is described as follows: Splicing RT-qPCR assay (THP), Table 2A. Particulars: Table 2A (THP); for AC50: AJ mRNA increase, read-out: HTT AJ (increase in alternative junction mRNA, AC50); for IC50: CJ mRNA decrease, read-out: HTT CJ (decrease in canonical junction mRNA, IC50).

This is an account of results in patent publication US20260285853A1, “COMPOUNDS AND METHODS FOR MODULATING SPLICING” (REMIX THERAPEUTICS INC., priority 2023, published 2026).

Each structure is given as a SMILES string. Where a name gives a salt, the structure may show the parent alone.

In general, GI50 refers to the concentration that inhibits growth by half. What is called AC50 is the concentration at which the activity in the assay is half-maximal. In general, IC50 refers to the point on the concentration scale where inhibition reaches its midpoint. For `Cc1cn2cc(NC(=O)c3ccc(N4CCC(NC5CC5C)CC4)c4cn(C)nc34)cc(F)c2n1` (stereo not drawn) [Compound 204, N-(8-fluoro-2-methyl-imidazo[1,2-a]pyridin-6-yl)-2-methyl-4-[4-[(2-methyl-cyclopropyl)amino]-1-piperidyl] indazole-7-carboxamide], the GI50 in experiment [1] lay in the range of 100 to 1000 nM. Besides, the AC50 in the experiment with MYB mRNA [2] is < 100 nM; in the experiment with MYB mRNA [3], < 100 nM; with HTT mRNA [4], 100 to 1000 nM; in the experiment on HTT mRNA [5], 100 to 1000 nM. Also, the IC50 is < 100 nM with MYB mRNA [2], < 100 nM in the experiment on MYB mRNA [3], 100 to 1000 nM in the experiment on HTT mRNA [4] and 100 to 1000 nM with HTT mRNA [5].

With `Cc1cn2cc(NC(=O)c3ccc(N4CCC(NC5CC5(C)C)CC4)c4cn(C)nc34)cc(F)c2n1` (stereo not drawn) [Compound 205, 4-(4-((2,2-dimethylcyclopropyl)amino)piperidin-1-yl)-N-(8-fluoro-2-methylimidazo[1,2-a]pyridin-6-yl)-2-methyl-2H-indazole-7-carboxamide], the GI50 in experiment [1] is 100 to 1000 nM. Moreover, the AC50 in the experiment with MYB mRNA [2] was < 100 nM; with MYB mRNA [3], < 100 nM; with HTT mRNA [4] it was 1000 to 10000 nM; in the experiment on HTT mRNA [5], 100 to 1000 nM. Moreover, the IC50 was < 100 nM in the experiment with MYB mRNA [2], < 100 nM in the experiment with MYB mRNA [3], 1000 to 10000 nM with HTT mRNA [4] and 100 to 1000 nM in the experiment with HTT mRNA [5].

With `CCNC1CCN(c2ccc(C(=O)Nc3cn4cc(C)nc4c(OC)n3)c3nn(C)cc23)CC1` [Compound 206, 4-[4-(ethylamino)-1-piperidyl]-N-(8-methoxy-2-methyl-imidazo[1,2-a]pyrazin-6-yl)-2-methyl-indazole-7-carboxamide], in experiment [1], the GI50 was in the range of 100 to 1000 nM. Also, the AC50 is < 100 nM in the experiment with MYB mRNA [2], < 100 nM with MYB mRNA [3], 100 to 1000 nM in the experiment with HTT mRNA [4] and 100 to 1000 nM in the experiment on HTT mRNA [5]. Besides, the IC50 is < 100 nM in the experiment on MYB mRNA [2], < 100 nM in the experiment with MYB mRNA [3], 100 to 1000 nM in the experiment on HTT mRNA [4] and 100 to 1000 nM in the experiment on HTT mRNA [5].

`COc1c(NC(=O)c2c(F)cc(N3CCC(NC4CC4)CC3)c3cn(C)nc23)cn2cc(C)nc2c1F` [Compound 207, 4-[4-(cyclopropylamino)-1-piperidyl]-6-fluoro-N-(8-fluoro-7-methoxy-2-methyl-imidazo[1,2-a]pyridin-6-yl)-2-methyl-indazole-7-carboxamide]: in experiment [1], the GI50 is < 100 nM. Besides, the AC50 in the experiment on MYB mRNA [2], in the experiment on MYB mRNA [3], with HTT mRNA [4] and in the experiment with HTT mRNA [5] was < 100 nM in each case. Besides, the IC50 in the experiment on MYB mRNA [2], in the experiment with MYB mRNA [3], in the experiment on HTT mRNA [4] and in the experiment on HTT mRNA [5] was < 100 nM throughout.

Turning to `COc1nc2c(C(=O)Nc3cc(F)c4nc(C)cn4c3)ccc(N3CCC(N)CC3)c2s1` [Compound 208, 7-(4-aminopiperidin-1-yl)-N-(8-fluoro-2-methylimidazo[1,2-a]pyridin-6-yl)-2-methoxybenzo[d]thiazole-4-carboxamide], in experiment [1], the GI50 is < 100 nM. Besides, the AC50 in the experiment on MYB mRNA [2] was < 100 nM; in the experiment with MYB mRNA [3] it was < 100 nM; in the experiment on HTT mRNA [4], 100 to 1000 nM; in the experiment on HTT mRNA [5] it was 100 to 1000 nM. The IC50 with MYB mRNA [2] is < 100 nM; with MYB mRNA [3] it was < 100 nM; in the experiment on HTT mRNA [4], 100 to 1000 nM; with HTT mRNA [5], < 100 nM.

As to `Cc1cn2cc(NC(=O)c3ccc(N4CCC(NC5CC5)CC4)c4cc(C)nn34)cc(F)c2n1` [Compound 209, 4-[4-(cyclopropylamino)-1-piperidyl]-N-(8-fluoro-2-methyl-imidazo[1,2-a]pyridin-6-yl)-2-methyl-pyrazolo[1,5-a]pyridine-7-carboxamide], the GI50 in experiment [1] is < 100 nM. In addition, the AC50 in the experiment with MYB mRNA [2] was < 100 nM; with MYB mRNA [3] it was < 100 nM; with HTT mRNA [4] it was 100 to 1000 nM; in the experiment on HTT mRNA [5] it was 100 to 1000 nM. Moreover, the IC50 with MYB mRNA [2] is < 100 nM; in the experiment with MYB mRNA [3] it was < 100 nM; with HTT mRNA [4], 100 to 1000 nM; with HTT mRNA [5], 100 to 1000 nM.

As for `Cc1cn2cc(NC(=O)c3ccc(N4CCC(NC5CC5)CC4)n4cc(C)nc34)cc(F)c2n1` [Compound 210, 5-(4-(cyclopropylamino)piperidin-1-yl)-N-(8-fluoro-2-methylimidazo[1,2-a]pyridin-6-yl)-2-methylimidazo[1,2-a]-pyridine-8-carboxamide], the GI50 in experiment [1] was < 100 nM. Further, the AC50 with MYB mRNA [2] is < 100 nM; with MYB mRNA [3], 100 to 1000 nM; in the experiment on HTT mRNA [4] it was 100 to 1000 nM; in the experiment on HTT mRNA [5], 100 to 1000 nM. Moreover, the IC50 was < 100 nM with MYB mRNA [2], < 100 nM in the experiment with MYB mRNA [3], 100 to 1000 nM with HTT mRNA [4] and < 100 nM with HTT mRNA [5].

For `Cc1cn2cc(NC(=O)c3ccc(N4C[C@@H](C)N[C@@H](C)C4)c4[nH]cnc34)cc(F)c2n1` [Compound 220, 7-[(3R,5S)-3,5-dimethylpiperazin-1-yl]-N-(8-fluoro-2-methyl-imidazo[1,2-a]pyridin-6-yl)-1H-1,3-benzodiazole-4-carboxamide], the GI50 in experiment [1] was 1000 to 10000 nM. Also, the AC50 in the experiment with MYB mRNA [2] was 100 to 1000 nM; in the experiment with MYB mRNA [3], 100 to 1000 nM; with HTT mRNA [4], > 10000 nM; with HTT mRNA [5], 1000 to 10000 nM. For the same compound, the concentration for half-maximal inhibition (IC50) is 100 to 1000 nM in the experiment with MYB mRNA [2], 100 to 1000 nM in the experiment on MYB mRNA [3], 1000 to 10000 nM in the experiment with HTT mRNA [4] and > 10000 nM with HTT mRNA [5].

As to `Cc1cn2cc(NC(=O)c3ccc(N4C[C@H](C)N[C@@H](C)C4)c4[nH]cnc34)cc(F)c2n1` [Compound 221, 7-[(3S,5S)-3,5-dimethylpiperazin-1-yl]-N-(8-fluoro-2-methylimidazo[1,2-a]pyridin-6-yl)-1H-1,3-benzodiazole-4-carboxamide], in experiment [1], the concentration for 50% growth inhibition (GI50) was 1000 to 10000 nM. Moreover, the AC50 is 100 to 1000 nM in the experiment on MYB mRNA [2], 100 to 1000 nM with MYB mRNA [3], > 10000 nM in the experiment on HTT mRNA [4] and 1000 to 10000 nM in the experiment on HTT mRNA [5]. Besides, the IC50 with MYB mRNA [2] was 100 to 1000 nM; in the experiment on MYB mRNA [3], 100 to 1000 nM; in the experiment on HTT mRNA [4], > 10000 nM; in the experiment with HTT mRNA [5], 1000 to 10000 nM.

As for `Cc1cn2cc(NC(=O)c3ccc(N4C[C@@H](C)N[C@@H](C)C4)c4[nH]c(C)nc34)cc(F)c2n1` [Compound 225, 7-[(3R,5S)-3,5-dimethylpiperazin-1-yl]-N-(8-fluoro-2-methylimidazo[1,2-a]pyridin-6-yl)-2-methyl-1H-1,3-benzodiazole-4-carboxamide], the GI50 in experiment [1] fell in the range of 1000 to 10000 nM. The AC50 in the experiment with MYB mRNA [2] was 1000 to 10000 nM; in the experiment with MYB mRNA [3], 1000 to 10000 nM; with HTT mRNA [4], 1000 to 10000 nM; in the experiment with HTT mRNA [5], > 10000 nM. Also, the IC50 in the experiment on MYB mRNA [2] is 100 to 1000 nM; in the experiment with MYB mRNA [3], 1000 to 10000 nM; in the experiment on HTT mRNA [4], 1000 to 10000 nM; in the experiment with HTT mRNA [5], 1000 to 10000 nM.

As for `Cc1cn2nc(C(=O)Nc3ccc(N4C[C@@H](C)N[C@@H](C)C4)c4cc[nH]c34)cc(C)c2n1` [Compound 237, N-(4-[(3R,5S)-3,5-dimethylpiperazin-1-yl]-1H-indol-7-yl)-2,8-dimethylimidazo[1,2-b]pyridazine-6-carboxamide], the GI50 in experiment [1] was in the range of 1000 to 10000 nM. For the same compound, the AC50 in the experiment with MYB mRNA [2], with MYB mRNA [3], with HTT mRNA [4] and with HTT mRNA [5] was 1000 to 10000 nM throughout. The IC50 in the experiment on MYB mRNA [2], in the experiment on MYB mRNA [3], in the experiment with HTT mRNA [4] and in the experiment on HTT mRNA [5] was 1000 to 10000 nM each time.

On to `Cc1cn2cc(NC(=O)c3ccc(N4C[C@H](C)N[C@@H](C)C4)c4[nH]nnc34)cc(F)c2n1` [Compound 242, 7-[(3S,5S)-3,5-dimethylpiperazin-1-yl]-N-(8-fluoro-2-methyl-imidazo[1,2-a]pyridin-6-yl)-1H-benzotriazole-4-carboxamide], for which the GI50 in experiment [1] was > 10000 nM. Besides, the AC50 with MYB mRNA [2], in the experiment on MYB mRNA [3], with HTT mRNA [4] and with HTT mRNA [5] was > 10000 nM each time. Moreover, the IC50 in the experiment on MYB mRNA [2], in the experiment with MYB mRNA [3], with HTT mRNA [4] and in the experiment with HTT mRNA [5] was > 10000 nM each time.

As to `Cc1cn2cc(NC(=O)c3ccc(N4C[C@@H](C)N[C@@H](C)C4)c4[nH]nnc34)cc(F)c2n1` [Compound 243, 7-((3S,5R)-3,5-dimethylpiperazin-1-yl)-N-(8-fluoro-2-methylimidazo[1,2-a]pyridin-6-yl)-1H-benzo[d][1,2,3]-triazole-4-carboxamide hydrochloride], the GI50 in experiment [1] is > 10000 nM. Further, the half-maximal activity concentration (AC50) with MYB mRNA [2], with MYB mRNA [3], in the experiment with HTT mRNA [4] and in the experiment with HTT mRNA [5] was > 10000 nM each time. Moreover, the IC50 in the experiment on MYB mRNA [2], in the experiment on MYB mRNA [3], in the experiment with HTT mRNA [4] and in the experiment on HTT mRNA [5] was > 10000 nM in each case.
